The assay concerns Wistar rats, transient MCAO model of focal brain ischemia. The assay can be described thus: Transient focal ischemia (MCAO), infarct volume by TTC staining. The following applies: 30 mg/kg i.p. twice daily from 30 min after onset of ischemia, 3 days reperfusion; compared with vehicle. The class given is in vivo, rat. The method, then:
Male Wistar rats (270-300 g; Harlan) were subjected to transient focal ischemia for 90 min by producing right middle cerebral artery occlusion (MCAO) as described previously, followed by reperfusion for 3 days and MTA treatment (30 mg/kg, intraperitoneally –i.p.- twice daily) starting 30 min after the onset of ischemia (n = 5 in each experimental group). Cerebral blood flow was monitored transcranially with a laser Doppler flowmeter (Perimed) and the infarct volume was assessed by 2,3,5-triphenyltetrazolium chloride (TTC) staining. Transient forebrain ischemia was induced as described elsewhere, by occluding the vertebral and common carotid arteries (4VO) for 10 min, followed by reperfusion for 7 days and MTA treatment (as above) starting 30 min after the onset of ischemia (n = 5 in vehicle group; n = 6 in the […]). The effectiveness of the treatment was assessed by using fluoro-Jade C staining to measure the levels of degenerated neurons in the CA1 region of the hippocampal formation.

The source of these data is publication PMC3944389, “Differential Neuroprotective Effects of 5′-Deoxy-5′-Methylthioadenosine” (PLoS ONE, 2014).

Turning to 5′-deoxy-5′-methylthioadenosine [MTA], the “volume of the infarct area” value is recorded as “did not show any reduction”.
